The source of these data is the supplement of paper PMC10290057.
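Further: Luminescence-based viability readout, five doses per compound, normalized against on-plate DMSO and empty-well controls, followed by dose-response curve fitting for every drug.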

The assay has as its system HCT116. The experiment in a line: efficacy (fitted maximal change in viability relative to DMSO control); higher = less cytotoxic (negative = loss of viability). To be noted: 48 h.
As for `c1ccc(-c2nn3c(c2-c2ccnc4cc(OCCN5CCOCC5)ccc24)CCC3)nc1`, the efficacy was -41.1%.

Take `CC(=O)O/N=C1\C(=O)N(Cc2cc(Cl)ccc2Cl)c2ccc(Cl)cc21`: the efficacy was -71.8%. The value for `CC(C)N(CCCNC(=O)Nc1ccc(C(C)(C)C)cc1)C[C@H]1O[C@@H](n2ccc3c(N)ncnc32)[C@H](O)[C@@H]1O` was -31.1%; that for `Cc1ccc(/C=N/NC(=O)c2ccccc2Oc2ccccc2)o1` was -6.56%; that for `Cc1ncc(Cl)cc1NCc1ccc(C(=O)NC(CC2CCCC2)C(=O)NC2CC2)s1` (configuration not stated) was -78.2%. Under `CCc1cc(Nc2nccc(-c3c(-c4ccc(OC)c(C(=O)Nc5c(F)cccc5F)c4)nc4ccccn34)n2)c(OC)cc1N1CCC(N2CCN([S+](C)(=O)[O-])CC2)CC1` stands -21%; under `CCCCOc1ccc(C(=O)Nc2ccc(F)cc2F)cc1`, -14.8%; under `CCCCOCCOc1nc(-c2ccc(C(=O)O)c(F)c2)sc1C`, -10%. With `CCOc1cc(/C=C2/C(=O)N(c3ccccc3)N=C2C)cc(Cl)c1OCC(=O)OC`, the efficacy was -22.5%.

For the molecule `CCOC1=CC=C(C=C1)N2C(=O)C3=CC=CN=C3/N=C2/[C@@H](C)N(CC4=CC=CN=C4)C(=O)CC5=CC=C(F)C(=C5)C(F)(F)F`, the efficacy is -9.22%. As to `Cc1cc(NC(=O)Nc2ccc(N(C)C)cc2)c2cc(F)cc(F)c2n1`, the efficacy was -37.6%. Regarding `CN(C)c1ccc(Nc2nc(N)n(C(=O)c3c(F)cccc3F)n2)cc1`, the efficacy was -100%.

`Cc1nn(C)c(COc2ccc(N3CCN([S+](=O)([O-])N(C)C)CC3)cc2)c1-c1cccc2c(CCCOc3cccc4ccccc34)c(C(=O)O)n(CCN3CCOCC3)c12`: the efficacy was -17.2%. The value for `CN1C(=O)C(=C\C2=C1N=C(NC3=CC=CC(=C3)C(O)=O)N=C2)/C4=C(Cl)C=CC=C4Cl` was -10.3%; that for `Cc1c(-c2c(-c3ccc(F)o3)sc3ncnc(O[C@@H](Cc4ccccc4OCc4ccnn4CC(F)(F)F)C(=O)O)c23)ccc(OCCN2CCN(C)CC2)c1Cl` was 9.5%. For the molecule `CNc1nc(C)nc(N[C@H]2CCC[C@@H](C(=O)NCc3ccc(C#N)cc3C(F)(F)F)C2)n1`, the efficacy is -20.5%. Under `COC(=O)N(CC(=O)O)Cc1cccc(OCc2nc(-c3ccc(Cl)cc3)oc2C)c1` stands -8.59%.

`COC1(C[S+]([O-])c2ccccc2)CCN(CCc2c[nH]c3ccc(F)cc23)CC1` (configuration not stated): the efficacy was -18.2%. The value for `COc1cc(OC)c(NC(=O)Nc2cc(C)on2)cc1Cl` was -7.13%. `COC1=C(OC)C=C2C(=CC=NC2=C1)OC3=CC=C(NC(=O)\C4=C\N(C(C)C)C(=O)N(C4=O)C5=CC=C(F)C=C5)C=C3F`: the efficacy is -13.9%. Under `COc1cc[nH]c2ncc(C(=O)C(=O)N3CCN(C(=O)c4ccccc4)C[C@H]3C)c1-2` stands -10.7%. As to `COC1=CC=C(Cl)C=C1\C2=C\C(=O)NC(=S)N2CC(N)=O`, the efficacy was -13.9%. With `COc1ccc2cc(OCC3(C(=O)O)CN(C(=O)c4ccc(F)cc4)C3)ccc2c1`, the efficacy is -11.6%. Under `COc1ccc2c(c1)CC[C@@H](CN(C)CC(=O)O)[C@H]2c1ccccc1` stands -15.5%. For `COc1cccc(Nc2c(C(N)=O)cnc3c(C)cc([S+](=O)([O-])c4cccc(C(=O)N(C)C)c4)cc23)c1`, the efficacy was -45.1%. Consider `CO[C@H]1CC[C@]2(CC1)CC3=C(C=C(C=C3)C4=CN=CC(=C4)C#CC)[C@@]2/5\N=C(C)/C(=N5)N`, for which the efficacy was -11.3%. `C[C@@H]1CCN(C(=O)N2CCCC2)C[C@@H]1N(C)c1ncnc2[nH]ccc12`: the efficacy was -8.82%. As to `Cn1cc(-c2ccc3nnc(C(F)(F)c4ccc5ncccc5c4)n3n2)cn1`, the efficacy was -26.2%. The value for `Cc1cc(C)c2c(c1)[C@@H](N(Cc1cc(C(F)(F)F)cc(C(F)(F)F)c1)c1nnn(C)n1)CCCN2C[C@H]1CC[C@H](C(=O)O)CC1` was -31.2%; that for `Clc1ccc2ncc(-c3cccc(NC4CNC4)n3)n2c1` was -10.1%. The value for `O=C(Nc1ccc(F)c(C(F)(F)F)c1)Nc1nnc(-c2ccncc2)s1` was -29%.

Turning to `O=C1CC(c2c[nH]c3ccc(F)cc23)C(=O)N1` (configuration not stated), the efficacy is -7.69%. As to `NC(=O)c1noc([C@H](CCCC2CCCCC2)CC(=O)NO)n1`, the efficacy is -86.4%.

With `NC(=O)[C@@H](CC1CC1)[C@@H](CCC(F)(F)F)C(=O)N[C@H]2\N=C(C3=CC=CC=C3)/C4=CC=CC(=C4NC2=O)F`, the efficacy is -12.2%. Consider `Nc1nc(N)c2nc(-c3cccc(O)c3)c(-c3cccc(O)c3)nc2n1`, for which the efficacy is -7.47%.

For `Nc1nc(OC(c2ccc(-c3cccc(F)c3)cc2)C(F)(F)F)cc(-c2ccc(C[C@@H](N)C(=O)O)cc2)n1` (some centres not stated), the efficacy is -26%. Under `O=C1N\N=C(\C[C@@H]2CCN(C2)C(=O)C3CC3)N1C4=CC=C(C=C4)C5=CC=C6OC=CC6=C5` stands -40.3%; under `O=C(O)c1ccc(-c2c[nH]c3ncc(-c4ccccc4)cc23)cc1C1CCCC1`, -22.5%.

Regarding `O=C(O)c1ccc(CN2CCC(CN[C@@H]3C[C@H]3c3ccccc3)CC2)cc1`, the efficacy was -14.1%. The value for `O=C(Nc1ccccc1)Nc1ccc(-c2ccc(C(=O)[C@@H]3CCC[C@H]3C(=O)O)cc2)cc1` was -8.51%. The value for `O=C1NC(=O)/C(=C/c2ccc(-c3ccc(F)cc3O)o2)S1` was -29.8%; that for `O=C(NOCCO)c1cc(CN2OCCCC2=O)c(F)c(F)c1Nc1ccc(I)cc1F` was -60.6%; that for `O=C(NC[C@H](O)CN1CCc2ccccc2C1)c1ccnc(NC2CCC2)c1` was -5.9%.

`O=[N+]([O-])c1ccc(-c2nc(-c3ccc(F)cc3)c(-c3ccncc3)[nH]2)cc1`: the efficacy is -23.7%. For the molecule `OC[C@H]1O[C@@H](O[C@@H]2[C@@H](CO)OC(O)(CO)[C@H]2O)[C@H](O)[C@@H](O)[C@H]1O` (mixture of isomers) [Lactulose], the efficacy was determined as 9%. Turning to `CC[S+](=O)([O-])N1CCC([C@@H](C)n2c(C)c(/C(O)=N/Cc3c(OC)cc(C)nc3O)c3ccccc32)CC1` (racemic) [CPI-169 racemate], the efficacy was -16.2%. Regarding `CN1CCN(C)C(=O)C1C2=CC=C(N/C3=N/C(=C\N(C)C3=O)C4=C(C)C(=CC=C4)NC(=O)C5=CC6=C(CCCC6)S5)C=C2` (racemic) [GDC-0834 racemate], the efficacy is -21.2%. Regarding `OC[C@H]1OC(O)C[C@@H](O)[C@@H]1O` (some centres not stated) [2-Deoxyglucose], the efficacy is -11.9%.

Turning to `N=C1N[C@H]2[C@H](CS[C@H]2CCCCC(=O)O)N1` [2-Iminobiotin], the efficacy was found to be 16%. The value for `O=C(O)CCCc1c[nH]c2ccccc12` [3-indolebutyric acid] was 15%.

For `Nc1ncnc2ccccc12` [4-Quinazolinamine], the efficacy was -11.9%. Under `N[C@@H](Cc1c[nH]c2ccc(O)cc12)C(=O)O` [5-Hydroxytryptophan] stands -7.82%.
